# Results as given in a melting point compilation (Tetko et al.; mined from patent text by program, amines drawn as free bases though some values may be those of a salt).
row,SMILES,melting point [°C]
1,CC(C)(C)C(=O)Nc1cccc(-c2ccnc3c(C(=O)c4ccco4)cnn23)c1,203 to 204
2,COc1c(CS(C)(=O)=O)cnc2ccccc12,151 to 154
3,CC(=O)On1cnc2c(Br)csc2c1=O,159 to 162
4,CN1C[C@H](CN2CCN(C(c3ccccc3)c3ccccc3)CC2)C[C@@H]2c3cccc4[nH]c(Br)c(c34)C[C@H]21,255
5,NC(=O)C12CCCN(CCC1)C2,172 to 175
6,CC(C)(C)C(=O)CN1C(=O)C(NC(=O)Nc2cccc3ccccc23)CN(C2CCCCC2)c2ccccc21 (stereo unspecified),200 to 203
7,CC1(C)Cc2cccc(OCCNCc3cccc(C4=C(F)CCC4)c3)c2O1,145
8,COc1ccc2c(c1)CCC1CCNC(=O)C(CCl)=C21 (stereo unspecified),135 to 138
9,O=C1CC2=C(CCN1)c1ccccc1Sc1ccccc12,195 to 198
10,COc1cccc(C23CCCC2C(=O)N(Cc2ccccc2)C(=O)C3)c1 (stereo unspecified),75 to 77
11,CC(CCNC(=O)c1ccc(Oc2ccc(F)cc2)o1)N(O)C(N)=O (stereo unspecified),161 to 163
12,Nc1nc(F)nc2c1ncn2C1OC(CO)C(O)C1F (stereo unspecified),207 to 209
13,NNc1ccnc2c(NC(=O)c3c(Cl)cccc3Cl)cc(C(F)(F)F)cc12,228 to 232
14,C=CC(Cc1ccccc1)(C(=O)O)N(Cc1ccccc1)C(=O)OCc1ccccc1 (stereo unspecified),68 to 70
15,O=[N+]([O-])c1ccc(Cl)nc1-c1ccncc1,137 to 138
16,COC(=O)c1ccc(-c2ccccn2)cc1,96
17,CCCCCCCCCCCC(=O)c1cn(S(=O)(=O)c2ccc(C)cc2)c2ccccc12,79 to 80
18,Cc1csc2ncc(C(O)CCCCc3ccccc3)n12 (stereo unspecified),120 to 121
19,O=CC=C(c1cccc(F)c1)c1cccc(F)c1,51 to 53
20,CCOC(=O)c1c(-c2cccc(Cl)c2)c2cc(C(O)c3nc(-c4ccccc4)cs3)ccc2[nH]c1=O (stereo unspecified),127
21,O=S(=O)(c1ccc(F)cc1)N1CCCC1c1ccc(C(F)(F)F)cc1 (racemic),114
22,CNC(=O)C(NC(=O)c1ccc(F)cc1C(F)(F)F)C(O)C(F)(F)F (stereo unspecified),212
23,CCOC(=O)/C=C/C=C/c1ccc(OC(C)C)cc1,64 to 65
24,O=C(NCCO)c1cccc(-c2cccc3oc(Cc4cccc(C(F)(F)F)c4)cc23)c1,135 to 136

row,SMILES,melting point [°C]
1,Nc1ccc(-c2cn(C3CCN(Cc4ccccc4)CC3)c3ncnc(N)c23)cc1F,141 to 142
2,CC(C)NCC(O)COc1ccc(CCO)cc1 (stereo unspecified),77 to 78
3,COC(=O)NC=Cc1ccc(O)cc1,169 to 170
4,CCOC(=O)c1c(Cn2ccnc2CC)nc2cc(OC)c(OC)cc2c1-c1ccc(OC)c(OC)c1,163 to 164
5,Nc1nnc(-c2ccc(C(F)(F)F)cc2)n1-c1cc(Cl)ccc1O,147 to 155
6,COc1cccc(OC)c1-c1cc(C(=O)NCC(=O)O)nn1-c1ccc(C(=O)N(C)CCCN(C)C)cc1C(C)C,160
7,C=C(C(=O)OC)C(O)c1c(C)n(C(=O)OC(C)(C)C)c2ccc(C)c(O)c12 (stereo unspecified),155 to 156
8,CC(=O)c1cc(F)ccc1Oc1nc2ccc(-n3cc(-c4ccccc4)nn3)cc2cc1Cc1ccccc1,183
9,Cc1ccc(O)c(C)c1N,177 to 179
10,CCOC(=O)c1ccnc(OCc2nc(-c3ccco3)oc2C)c1,80 to 81
11,CSc1nc(O)c(C=O)c(O)n1,> 250
12,Cc1c(CC(=O)O)c2c(F)c(O)ccc2n1C(=O)c1ccc(Cl)cc1,187 to 189
13,Oc1ccc(CCCn2ccnc2S)cc1,185
14,O=c1ccn(-c2cccc(C(F)(F)F)c2)nc1-c1ccnn1-c1ccc(Cl)cc1,166 to 167
15,COc1cn2nc(OCCCN3CCC(OC(c4ccccc4)c4ccccc4)CC3)ccc2n1,133 to 135
16,CC(C)(C)OC(=O)C1CC1c1ccc(-c2ncn(-c3ccc(OC(F)(F)F)cc3)n2)cc1 (stereo unspecified),100 to 101
17,CC(c1ccc(OC(=O)CCl)cc1)(c1ccc(OC(=O)CCl)cc1)c1ccc(OC(=O)CCl)cc1,144 to 146
18,CC(=O)OC1CSC(Sc2ccc(C(=O)C(F)(F)F)cc2)C(OC(C)=O)C1OC(C)=O (stereo unspecified),143 to 148
19,CCCCOCCOc1ccc(-c2ccc3c(c2)C=C(C(=O)O)CCN3c2ccc(S(=O)(=O)N(C)C)cc2)cc1,236 to 238
20,CC(=O)NCCC1CCc2ccn3nccc3c21 (stereo unspecified),100 to 101
21,Nc1ncc(Cl)cc1O,196 to 201
22,C=CCOc1nc(Cl)nc2nc[nH]c12,208 to 209
23,COc1ccccc1N1CCC(CNC[C@H]2COc3ccccc3O2)CC1,78 to 79
24,COc1ccc2c(c1)C(c1ccc(N)cc1)=NNC(=O)C2,167 to 170

row,SMILES,melting point [°C]
1,Cc1ccc(C2=NC[C@@H](O)[C@H](c3ccccc3)O2)cc1 (racemic),168
2,O=C(NCc1ccc(F)cc1)c1ccnc(N2CCN(Cc3ccncc3)C2=O)c1,161 to 163
3,CC(C)c1cc(Oc2ccc(Cl)cc2)nc(C(C)C)c1NC(=S)NC(C)(C)C,165 to 167
4,Nc1c(F)c(N2C[C@@H](N)[C@@H](n3ccnn3)C2)c(F)c2c1c(=O)c(C(=O)O)cn2-c1ccc(F)cc1F (relative stereo),279 to 281
5,CCOC(=O)C=C1CN=C(c2ccccc2F)c2cc(Cl)ccc2N1,109 to 111
6,COC(CCCNc1ccc(-c2nc(=O)c3ccccc3s2)cn1)OC,157 to 158
7,O=C(c1ccccc1)c1ccc(-c2nc(COc3cccc(CCCn4ccnc4)c3)co2)cc1,97 to 98
8,CCCOc1ccccc1CCOc1ccc2c(c1)C=C(C(=O)Nc1ccc(CN(C)C3CCOCC3)cc1)CCS2(=O)=O,161 to 162
9,COc1ccc(N2CCN(c3ccc(NC(=O)Oc4ccccc4)nc3)CC2)cc1,130 to 132
10,O=C(NCc1ccc(Cl)cc1)c1cc2c(O)c(C(=O)NCc3ccc(Cl)cc3)cnc2o1,230 to 245
11,CN1CCC(c2cccc3ccc(C(=O)NCCCc4ccc(Cl)cc4)cc23)CC1,132 to 134
12,CCN(CC)CCOc1ccc(Nc2nccc(-c3ccncc3)n2)cc1,85 to 87
13,Cc1ccc(S(=O)(=O)c2c(N3CCN(C(=O)c4cccs4)CC3)c3ccccc3n(C)c2=O)cc1,213
14,CN(C)c1ccc2c(c1)CC(N1CCN(CCN3CCOC3=O)CC1)c1ccccc1S2 (stereo unspecified),168 to 170
15,Cc1ncnn1-c1ccc(N)cc1,145
16,C[C@]1(COC(=O)N2CCC(Oc3ccc(C(F)(F)F)cc3)CC2)Cn2cc([N+](=O)[O-])nc2O1,165 to 166
17,Oc1ccc2c(c1)SCCc1c-2n(CCCCCN2CCCCC2)c2ccccc12,130
18,Cc1ccccc1Cn1cnc(C#N)c1C#N,80 to 81
19,CC1CCC2C3CCC4CC(O)CCC4(C)C3C(N(C)C)CC12C (stereo unspecified),150 to 156
20,O=C(O)C1CSC(=S)N1 (stereo unspecified),183 to 184
21,COc1ccc(-c2ccccc2)c2ccc(C)nc12,133 to 134
22,NS(=O)(=O)c1ccc(-n2nc(CNC(=O)NO)cc2-c2ccc(Cl)cc2)cc1,216 to 218
23,COc1ccc(N2CCC(c3cnc(N)nc3N)CC2)cc1,224 to 225
24,CCC(=C(c1ccccc1)c1ccc(OCC2CO2)cc1)C1CCCC1 (stereo unspecified),79 to 82

row,SMILES,melting point [°C]
1,CC(C)Cn1c(C(F)(F)F)nc2cc(F)c(-n3c(=O)cc(C(F)(F)F)n(C)c3=O)cc21,169 to 170
2,COc1nn(-c2cccc(N3CCCC3=O)c2)c(=O)n(Cc2ccc(Cl)cc2)c1=O,91 to 93
3,NCC1CCc2[nH]c3cc(Cl)c(F)cc3c2C1 (stereo unspecified),180 to 181
4,CC(C)[C@H](NC(=O)N(C)Cc1cccnc1)C(=O)N[C@@H](Cc1ccccc1)C[C@H](O)[C@H](Cc1ccccc1)NC(=O)[C@@H](NC(=O)N(C)Cc1cccnc1)C(C)C,193 to 196
5,CCC(=C(c1ccccc1)c1ccc(C=CC(=O)O)cc1)c1ccccc1,148 to 150
6,CCCOc1cc(C)c(C(=O)O)c(OCc2ccc(OCCc3nc(-c4ccccc4)oc3C)cc2)c1,50 to 52
7,CCN1c2ncc(C3(c4ccccc4)CO3)cc2C(=O)N(C)c2ccc(Cl)nc21 (stereo unspecified),105 to 107
8,COc1ccccc1C1CC(=O)c2c(C)coc2C1 (stereo unspecified),79 to 80
9,O=C1CSCc2cc(Br)ccc21,81
10,O=C1NCC=Cc2cc[nH]c21,155 to 160
11,CCCCc1oc2ccccc2c1C(=O)c1ccc(OCCN(CC)CC)c(I)c1,100 to 102
12,CCN(CC)CCc1cccc(Nc2ncc3c(n2)N(c2cccc(C(N)=O)c2)C(=O)N(c2ccc(OC)cc2)C3C)c1 (stereo unspecified),170 to 175
13,O=C(CC(=O)c1ccc(Br)cc1)c1ccc(Br)cc1,193 to 195
14,O=C1c2ccccc2C(=O)N1OCc1cc(Cl)c2c(c1Cl)OC(c1ccccc1)(c1ccccc1)O2,127 to 129
15,CCN1CCN(c2ccnc(-c3nc(=O)c4ccccc4s3)c2)C1=O,212 to 213
16,C#Cc1cc(Nc2ncnc3cnc(NC(=O)CP(=O)(OCC)OCC)cc23)ccc1Cl,124 to 127
17,CCCC1(C)SC(=NOC(=O)NC)N=C1C (stereo unspecified),66 to 69
18,O=C(O)Cc1ccc(NCCNC(=O)C2Cc3ccccc3N2S(=O)(=O)c2ccc(-c3cc(C(F)(F)F)ccc3Cl)cc2)cc1 (stereo unspecified),110 to 118
19,CC1c2cc(C(C)(C)C)cc(C(C)(C)C)c2OP(Cl)Oc2c1cc(C(C)(C)C)cc2C(C)(C)C (stereo unspecified),194 to 198
20,CS(=O)(=O)Nn1c(=O)[nH]c2cc([N+](=O)[O-])c(-n3ccnc3)cc2c1=O,> 270
21,COCCc1sc2ncnc(N)c2c1-c1ccc(NC(=O)c2ccccc2)cc1,200 to 202
22,CCn1c(=O)n(O)c(=O)c2cc(F)c(N3CCN(C)CC3)cc21,132 to 134
23,CCOC(=O)c1ncn(-c2nncs2)c1N,181 to 183
24,O=C1c2ccccc2C(=O)c2c1ccc1[nH]c(=O)c(=O)[nH]c21,245 to 246
